Where two headings read alike, the source gives them in different places.
Columns and labels:
[1] = Microsomal stability assay, human liver microsomes;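 further: pooled human liver microsomes at 0.25 mg/mL with 1 µM compound and NADPH at 37 °C, pH 7.4, for 30 min, unchanged parent quantified by LC-MS/MS against the 0 min sample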
CYP2D6 = CYP2D6 (Homo sapiens, UniProt P10635); assay: CYP2D6 inhibition assay (bufuralol, pooled human liver microsomes)
[2] = test system: Aβ40 in conditioned medium of cells stably expressing Amyloid Precursor Protein (APP); assay: In vitro BACE cell-based assay (Aβ40 in conditioned medium, sandwich ELISA); conditions: Homo sapiens;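 further: compounds added as a dilution series, secreted peptide quantified by europium time-resolved fluorescence readout, potency fitted from percent of control versus compound concentration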
[3] = molecular target: Beta Secretase enzyme (BACE) (Homo sapiens, UniProt P56817); assay: In vitro enzymatic BACE FRET (fluorescence resonance energy transfer) assay; assay type: biochemical;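 further: fluorescence read after 1 h with 50 nM quenched peptide substrate spanning the BACE cleavage site, in pH 4.2 acetate buffer containing 10% DMSO and nonionic detergent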
CYP3A4 (CYP3A) = CYP3A4 (CYP3A) (Homo sapiens, UniProt P08684); assay: in vitro; conditions: microsomes, pH 7.4;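 further: inhibition of CYP3A-mediated 1-hydroxymidazolam formation after 10 min incubation with NADPH, quantified by HPLC MS relative to metabolite produced without test compound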
[4] = Microsomal stability assay, rat liver microsomes;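 further: rat liver microsomes (0.25 mg/mL) with about 1 µM compound plus 1 mM NADPH, pH 7.4, 37 °C for 30 min, parent left measured by LC-MS/MS against 0 min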
[5] = 2D6 IC50 (uM), CYP2D6 inhibition
[6] = HEK293, HEK cell-based assay IC50, read-out: HEK cell assay
[7] = BACE enzyme assay IC50, read-out: BACE1 FRET assay
[8] = 2D6 IC50 (uM), CYP enzyme inhibition
[9] = HEK293, HEK cell-based assay, IC50's in uM, read-out: HEK cell assay
[10] = BACE enzyme assay, IC50's in uM, read-out: BACE1 FRET assay
[11] = HEK293, HEK cells, read-out: HEK cell assay (IC50)
[12] = read-out: BACE1 FRET assay (IC50)

Sequence of CYP3A4 (CYP3A) (P08684 2-503): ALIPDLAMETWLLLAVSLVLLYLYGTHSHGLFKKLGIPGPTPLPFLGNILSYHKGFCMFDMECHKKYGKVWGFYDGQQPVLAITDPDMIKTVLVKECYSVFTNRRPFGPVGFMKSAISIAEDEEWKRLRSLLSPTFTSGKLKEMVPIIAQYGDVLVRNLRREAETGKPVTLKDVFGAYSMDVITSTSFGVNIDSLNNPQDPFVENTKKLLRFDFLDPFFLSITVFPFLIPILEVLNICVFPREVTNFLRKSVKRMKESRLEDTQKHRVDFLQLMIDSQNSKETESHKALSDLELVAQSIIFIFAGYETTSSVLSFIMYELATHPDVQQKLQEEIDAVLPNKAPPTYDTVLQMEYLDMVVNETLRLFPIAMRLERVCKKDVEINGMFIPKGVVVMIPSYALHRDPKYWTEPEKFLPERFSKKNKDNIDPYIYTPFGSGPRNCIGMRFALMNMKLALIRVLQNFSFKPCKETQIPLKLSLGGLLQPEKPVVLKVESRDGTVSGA
Sequence of Beta Secretase enzyme (BACE) (P56817 46-501): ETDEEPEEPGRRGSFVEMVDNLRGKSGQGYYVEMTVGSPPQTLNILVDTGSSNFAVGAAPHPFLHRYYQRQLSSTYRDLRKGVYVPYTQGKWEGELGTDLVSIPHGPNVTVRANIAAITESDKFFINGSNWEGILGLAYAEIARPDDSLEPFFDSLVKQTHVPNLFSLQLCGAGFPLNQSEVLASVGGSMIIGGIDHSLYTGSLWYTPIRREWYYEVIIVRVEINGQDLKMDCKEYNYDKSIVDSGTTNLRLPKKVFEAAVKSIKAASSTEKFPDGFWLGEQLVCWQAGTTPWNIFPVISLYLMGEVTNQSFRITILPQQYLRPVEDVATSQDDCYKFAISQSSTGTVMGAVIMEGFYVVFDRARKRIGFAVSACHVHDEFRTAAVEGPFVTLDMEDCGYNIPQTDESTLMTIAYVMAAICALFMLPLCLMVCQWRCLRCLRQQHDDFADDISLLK
Sequence of CYP2D6 (P10635 whole entry): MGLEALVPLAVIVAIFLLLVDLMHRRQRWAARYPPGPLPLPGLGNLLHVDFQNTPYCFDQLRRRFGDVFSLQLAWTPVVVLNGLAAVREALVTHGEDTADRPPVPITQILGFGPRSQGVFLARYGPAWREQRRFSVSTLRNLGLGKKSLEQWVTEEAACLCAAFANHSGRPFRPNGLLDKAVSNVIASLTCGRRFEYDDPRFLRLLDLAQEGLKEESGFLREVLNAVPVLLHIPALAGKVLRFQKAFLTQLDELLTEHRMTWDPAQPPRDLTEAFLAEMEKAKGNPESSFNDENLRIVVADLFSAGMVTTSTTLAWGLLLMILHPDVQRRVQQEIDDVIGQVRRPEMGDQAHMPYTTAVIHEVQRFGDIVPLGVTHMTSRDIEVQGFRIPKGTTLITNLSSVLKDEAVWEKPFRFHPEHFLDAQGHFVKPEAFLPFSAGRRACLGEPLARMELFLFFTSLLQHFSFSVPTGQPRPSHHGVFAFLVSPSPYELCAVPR

| Structure (SMILES) | HLM ([1]; human liver microsomes) | IC50 (CYP2D6; [5]) | IC50 [2, 6] | IC50 [3, 7] | IC50 (CYP3A4 (CYP3A)) | RLM ([4]; rat liver microsomes) | HLM ([1]; human liver microsomal data) | IC50 (CYP2D6; [8]) | RLM ([4]; rat liver microsomal data) | IC50 [2, 9] | IC50 [3, 10] | further results |
| --- | --- | --- | --- | --- | --- | --- | --- | --- | --- | --- | --- | --- |
| Cc1cccc(CN2CCO[C@H](C(=O)N[C@@H](Cc3ccc(F)cc3)[C@H](O)CN[C@H]3CC4(CCC4)Oc4ncc(CC(C)(C)C)cc43)C2)c1 [compound 691] | 543 µL/min/mg | 3 µM | 0.104 µM | 0.078 µM | 200 nM | 426 µL/min/mg | – | – | – | – | – | – |
| CO[C@H](C)C(=O)N[C@@H](Cc1cccc(F)c1)[C@H](O)CN[C@H]1CC2(CCC2)Oc2c(-c3ccncc3)cc(CC(C)(C)O)cc21 [compound 567] | – | – | – | – | 100 nM | – | 67 µL/min/mg | 2.2 µM | 120 µL/min/mg | – | – | IC50 ([2]; HEK293, HEK cells, read-out: HEK cell assay): 0.009 µM; IC50 ([3]; BACE enzyme assay, read-out: BACE1 FRET assay): 0.039 µM |
| COCC(=O)N[C@H](Cc1cccc(-c2nccs2)c1)[C@@H](O)CN[C@H]1CC2(CCC2)Oc2ncc(C3CCCC3)cc21 [compound 810] | – | – | – | – | 100 nM | – | 274 µL/min/mg | 0.5 µM | 271 µL/min/mg | 1.34 µM | 4.49 µM | – |
| CCOCC(=O)N[C@@H](Cc1cccc(-c2nccs2)c1)[C@H](O)CN[C@H]1CC2(CCC2)Oc2ncc([C@@H]3CC3(C)C)cc21 [compound 914, N-((1S,2R)-3-(((4′S)-6′-((1R)-2,2-dimethylcyclopropyl)-3′,4′-dihydrospiro[cyclobutane-1,2′-pyrano[2,3-b]pyridin]-4′-yl)amino)-2-hydroxy-1-(3-(1,3-thiazol-2-yl)benzyl)propyl)-2-ethoxyacetamide] | – | – | – | – | 200 nM | – | 57 µL/min/mg | – | 61 µL/min/mg | – | 0.002 µM | IC50 (CYP2D6; 2D6 IC50, CYP enzyme inhibition): 0.2 µM; IC50 ([2]; HEK293, cell-based assay, HEK cells, IC50's in uM, read-out: HEK cell assay): 0.008 µM |
| COCC(=O)N[C@@H](Cc1cc(F)cc(F)c1)[C@H](O)CN[C@H]1CC2(CCC2)Oc2c1cc(CC(C)(C)C)nc2-c1ccc2c(c1)OCO2 [compound 629] | 171 µL/min/mg | – | – | – | 1200 nM | 209 µL/min/mg | – | – | – | – | – | IC50 (CYP2D6; 2D6 IC50, CYP2D6 inhibition): ≥ 27 µM; IC50 [2, 11]: 0.121 µM; IC50 [3, 12]: 0.009 µM |
| COCC(=O)N[C@@H](Cc1cccc(F)c1)[C@H](O)CN[C@H]1CC2(CCC2)Oc2c1cc([C@@H](O)C(C)(C)C)cc2-n1ccnc1 [compound 593] | 14 µL/min/mg | – | – | – | 100 nM | 29 µL/min/mg | – | – | – | – | – | IC50 (CYP2D6; 2D6 IC50, CYP2D6 inhibition): 1 µM; IC50 [2, 11]: 0.312 µM; IC50 [3, 12]: 1.59 µM |
| C#Cc1cccc(C[C@H](NC(=O)COC)[C@H](O)CN[C@H]2CC3(CCC3)Oc3ncc(CC)cc32)c1 [compound 842] | – | – | – | – | 200 nM | – | 55 µL/min/mg | 4.9 µM | 57 µL/min/mg | 0.065 µM | 0.026 µM | – |
| COCC(=O)N[C@@H](Cc1cc(F)cc(-c2nc(C)cs2)c1)[C@H](O)CN[C@H]1CC2(CCC2)Oc2ncc(CC(C)C)cc21 [compound 733] | 249 µL/min/mg | 4.5 µM | 0.021 µM | 0.008 µM | ≤ 30 nM | 399 µL/min/mg | – | – | – | – | – | – |
| C#Cc1cccc(C[C@H](NC(=O)COC)[C@H](O)CN[C@H]2C[C@@]3(CCOC3)Oc3ncc(CC(C)(C)C)cc32)c1 [compound 825, N-((1S,2R)-3-(((3S,4′S)-6′-(2,2-dimethylpropyl)-3′,4,4′,5-tetrahydrospiro[furan-3,2′-pyrano[2,3-b]pyridin]-4′-yl)amino)-1-(3-ethynylbenzyl)-2-hydroxypropyl)-2-methoxyacetamide] | – | – | – | – | 100 nM | – | 17 µL/min/mg | 7.3 µM | 85 µL/min/mg | 0.009 µM | 0.005 µM | – |
| COCC(=O)N[C@@H](Cc1cc(F)cc(F)c1)[C@H](O)CN[C@H]1CC(C)(C)Oc2c1cc(Br)c1c2OCO1 [compound 746] | 150 µL/min/mg | 3.8 µM | 0.185 µM | 0.275 µM | 200 nM | 144 µL/min/mg | – | – | – | – | – | – |

Source: US8163909B2, “Substituted hydroxyethyl amine compounds as beta-secretase modulators and methods of use” (Amgen Inc., priority 2007, dated 2012)
